Earlier results on 1 molecule are cited in patent publication US11103547B2, “Methods for disrupting biofilms” (priority 2016, dated 2021).

The series deals with MRSA biofilm. The note with it: shown previously; positive control.

In the case of `CCCCCCCCCC(=O)N[C@@H](Cc1c[nH]c2ccccc12)C(=O)N[C@H](CC(N)=O)C(=O)N[C@@H](CC(=O)O)C(=O)N[C@@H]1C(=O)NCC(=O)N[C@@H](CCCN)C(=O)N[C@@H](CC(=O)O)C(=O)N[C@H](C)C(=O)N[C@@H](CC(=O)O)C(=O)NCC(=O)N[C@H](CO)C(=O)N[C@@H]([C@H](C)CC(=O)O)C(=O)N[C@@H](CC(=O)c2ccccc2N)C(=O)O[C@@H]1C` [Daptomycin], the “disruption of biomass biofilm of MRSA” value is on record as “disrupt biomass biofilm of MRSA”.
